Reference: patent publication US20210330611A1, “THERAPY FOR NEUROLOGICAL DISEASES/DISORDERS” (priority 2020, published 2021)
Values joined by “and” are separate entries in the source; they are usually repeats but may differ in a detail not shown here. Equal entries are not always repeated. Where two headings read alike, the source gives them in different places.

Assays:
[1] = test system: fibrin-induced microglia activation; assay: Image-based assay of fibrin-induced microglia activation (HTS and dose response); assay type: cell-based, rat; conditions: for IC50 / inhibition at 10 µM: Rattus norvegicus, Microglia; for inhibition at 10 µM: primary microglia HTS, fibrin stimulation, increased cell size (>800 μm^2) as marker of activation, read-out: Fibrin % inhibition
[2] = test system: LPS-induced microglia activation; assay: Image-based assay of LPS-induced microglia activation (HTS and dose response); assay type: cell-based, rat; conditions: Rattus norvegicus, Microglia; for inhibition at 10 µM: primary microglia HTS, LPS stimulation, increased cell size (>800 μm^2) as marker of activation, read-out: LPS % inhibition
[3] = test system: fibrin- and LPS-induced microglia activation; assay: cells; assay type: cell-based, rat; conditions: for inhibition at 10 µM: Rattus norvegicus
in vitro [4] = conditions: rat, Cell Toxicity IC50 (uM) [cFib assay]
in vitro [5] = conditions: rat
primary rat microglia [6] = assay: Cell toxicity (dead cells, size <150 μm2) in LPS assay; conditions: for LPS % cell toxicity: primary microglia HTS, LPS stimulation, decreased size (<150 μm^2) as marker of toxicity; for IC50: read-out: Cell Toxicity IC50 (uM) [LPS assay], LPS assay
primary rat microglia [7] = assay: Cell toxicity (dead cells, size <150 μm2) in coated fibrin (cFib) assay; conditions: primary microglia HTS, fibrin stimulation; decreased size (<150 μm^2) as marker of toxicity;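 as to Fibrin % cell toxicity: share of dead cells sized under 150 µm2 at 10 µM in fibrin-stimulated microglia HTS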
[8] = Table 6, read-out: Fibrin IC50 (uM) (Suppl. Table 7)
[9] = Table 6, read-out: LPS IC50 (uM) (Suppl. Table 7)
[10] = HTS of 1907 compounds, quadrant by fibrin and LPS inhibition
[11] = Microglia, Table 3, read-out: Cherry-picked Hit (Suppl. Table 7)
[12] = Microglia, HTS hit classification, read-out: Hit
[13] = quadrant by fibrin and LPS inhibition in HTS of 1907 compounds
[14] = 48 h, Table 1, dose response 0.001-20 μM, triplicates, primary rat microglia, 48 h, read-out: Fibrin IC50
[15] = dose response, fibrin-induced microglia activation, read-out: Fibrin IC50
[16] = fibrin-induced microglia activation, dose response, read-out: Fibrin IC50 (uM) (Suppl. Table 7)
[17] = 48 h, Table 1, dose response 0.001-20 μM, triplicates, primary rat microglia, 48 h, read-out: LPS IC50
[18] = LPS-induced microglia activation, dose response, read-out: LPS IC50 (uM) (Suppl. Table 7)
[19] = dose response, LPS-induced microglia activation, read-out: LPS IC50
[20] = Table 3, read-out: Fibrin IC50 (uM) (Suppl. Table 7)
[21] = Table 3, read-out: LPS IC50 (uM) (Suppl. Table 7)

SMILES	inhibition at 10 µM [1] [%]	Quadrant (FIG. 5b) [3, 10]	inhibition at 10 µM [3, 11] [%]	inhibition at 10 µM [3, 12] [%]	Quadrant (FIG. 5b) ([3]; Table 1, screen at 10 μM)	Quadrant (FIG. 5b) ([3]; Table 3, screen at 10 μM)	Quadrant (FIG. 5b) [3, 13]	IC50 (in vitro [4]; Table 3) [µM]	IC50 (in vitro [4]; cFib assay) [µM]	IC50 (in vitro [5]) [µM]	LPS % cell toxicity (primary rat microglia [6])	IC50 (primary rat microglia [6]) [µM]	Fibrin % cell toxicity (primary rat microglia [7])	IC50 [1, 14] [µM]	IC50 [1, 15] [µM]	IC50 [1, 16] [µM]	IC50 [2, 17] [µM]	inhibition at 10 µM ([2]; 48 h) [%]	IC50 [2, 18] [µM]	IC50 [2, 19] [µM]	other results
C[C@]12CCC(=O)C=C1CC[C@@H]1[C@@H]2[C@@H](O)C[C@@]2(C)[C@H]1CC[C@]2(O)C(=O)CO [Hydrocortisone, reference compound]	104	Q2	> 50	> 50	Q2	Q2	Q2	> 20	> 20	> 20	2% and 1% and 5%	> 20	2% and 4%	–	–	–	–	–	–	–	IC50 [1, 8]: 0.03 µM; IC50 ([1]; Table 7, read-out: fib_IC50): 0.018 µM; IC50 [2, 9]: 18 µM; IC50 ([2]; Table 7, read-out: LPS_IC50): 0.002 µM; Quadrant (FIG. 5b) ([3]; Table 2, screen at 10 μM): Q2; Activity ([3]; Table 7, fib = fibrin, LPS, tox = toxicity): fib/LPS; Quadrant (FIG. 5b) ([3]; microglia HTS, Table 6): Q2; IC50 (in vitro [4]; cFib assay, Table 6): > 20 µM; IC50 (primary rat microglia [6]; Table 6): > 20 µM
CCOC(=O)[N-]c1cn(N2CCOCC2)n[o+]1 [Molsidomine, reference compound]	103	Q2	–	> 50	Q2	–	Q2	–	> 20	> 20	5%	–	2%	> 20	> 20	> 20	> 20	124	> 20	> 20	inhibition at 10 µM ([3]; hit classification in microglia HTS, read-out: Cherry-picked Hit (Suppl. Table 7)): > 50%
CCOC(=O)O[C@]1(C(=O)COC(=O)CC)CC[C@H]2[C@@H]3CCC4=CC(=O)C=C[C@]4(C)[C@H]3[C@@H](O)C[C@@]21C [Prednicarbate, reference compound]	61	Q2	> 50	> 50	Q2	Q2	Q2	> 20	> 20	> 20	1%	> 20	1%	0.002	0.002	0.002	> 20	73	> 20	> 20	Fibrin Selectivity [1]: 8510; Fibrin Selectivity (LOG10) [1]: 3.93; IC50 [1, 20]: 0.002 µM; IC50 [1, 8]: 0.002 µM; IC50 [2, 21]: > 20 µM; IC50 [2, 9]: > 20 µM; Quadrant (FIG. 5b) ([3]; microglia HTS, Table 6): Q2; IC50 (in vitro [4]; cFib assay, Table 6): > 20 µM; IC50 (primary rat microglia [6]; Table 6): > 20 µM
CC(C)c1nc(N(C)S(C)(=O)=O)nc(-c2ccc(F)cc2)c1/C=C/[C@@H](O)C[C@@H](O)CC(=O)O [Rosuvastatin, reference compound]	93	Q2	> 50	> 50	Q2	Q2	Q2	20	20	> 20	4%	> 20	2%	0.3	0.3	0.3	3	95	3	3	Fibrin Selectivity [1]: 12; Fibrin Selectivity (LOG10) [1]: 1.09; IC50 [1, 20]: 0.3 µM; IC50 [2, 21]: 3 µM
